According to patent publication US9150546B2, “Triazine derivative and pharmaceutical composition comprising the same” (SHIONOGI & CO., LTD., priority 2009, dated 2015):

What follows are compounds tested against human P2X3 receptor (Homo sapiens (Human), UniProt P56373) (assay: P2X3 receptor inhibition, ATP-evoked Fluo-3 fluorescence (FDSS 3000)). Details: C6BU-1 cell transfected with human P2X3 receptor gene.
Assay type: cell-based

Chain of human P2X3 receptor (P56373 whole entry): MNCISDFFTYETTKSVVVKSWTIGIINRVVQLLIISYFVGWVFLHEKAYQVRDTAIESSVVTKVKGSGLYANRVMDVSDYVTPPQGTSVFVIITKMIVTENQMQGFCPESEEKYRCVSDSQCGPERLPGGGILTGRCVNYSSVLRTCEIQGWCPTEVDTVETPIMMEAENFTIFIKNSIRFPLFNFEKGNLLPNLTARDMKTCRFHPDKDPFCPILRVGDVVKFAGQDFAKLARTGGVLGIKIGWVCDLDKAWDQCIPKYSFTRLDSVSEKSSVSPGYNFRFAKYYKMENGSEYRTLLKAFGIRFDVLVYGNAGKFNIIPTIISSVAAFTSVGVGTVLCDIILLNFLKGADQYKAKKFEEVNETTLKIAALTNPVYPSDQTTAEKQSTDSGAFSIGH

SMILES | IC50
CC(C)Oc1ccc(Nc2nc(=O)n(C(CO)CO)c(=O)n2Cc2ccc(Cl)cc2)cc1F [I-286] | 277 nM
CCN(CC)c1nc(=O)n(Cc2ccc(Cl)cc2)/c(=N/c2ccc(OC(C)C)c(Cl)c2)[nH]1 [II-013] | 430 nM
COC(=O)[C@@H](C)Cn1c(=O)nc(Nc2ccc(OC(C)C)cc2)n(Cc2ccc(Cl)cc2)c1=O [I-529] | 22 nM
CC(C)Oc1ccc(Nc2nc(=O)n(CCCO)c(=O)n2Cc2ccc(Cl)cc2)cc1 [I-359] | 40 nM
CCOc1ccc(/N=c2\[nH]c(=O)n(CC(C)(C)C(=O)O)c(=O)n2Cc2ccc(Cl)cc2)cc1C [I-465] | 57 nM
CC(C)Oc1ccc(Nc2nc(=O)n(CCN3CCOCC3)c(=O)n2Cc2ccc(Cl)cc2)cc1F [I-281] | 12 nM
COC(=O)C(C)(C)Cn1c(=O)[nH]/c(=N\c2ccc(OC(C)C)c(Cl)c2)n(CC2CCCCC2)c1=O [I-547] | 11 nM
CC(C)n1c(=O)nc(Nc2ccc(C(=O)NC3CC3)cc2)n(Cc2ccc(Cl)cc2)c1=O [I-257] | 682 nM
CCOc1ccc(Nc2nc(=O)n(CC(CO)CO)c(=O)n2Cc2ccc(Cl)cc2)cc1 [I-371] | 63 nM
CCCn1c(=O)nc(Nc2ccc(OC(C)C)c(F)c2)n(Cc2ccccc2)c1=O [I-349] | 113 nM
CC(C)Oc1ccc(Nc2nc(=O)n(CC(=O)NCCO)c(=O)n2Cc2ccc(Cl)cc2)cc1F [I-353] | 18 nM
CC(C)Oc1ccc(/N=c2\[nH]c(=O)n(C[C@H](C)C(=O)O)c(=O)n2CC2CCCCC2)cc1Cl [I-552] | 23 nM
COC(=O)C[C@@H](C)n1c(=O)[nH]/c(=N\c2ccc(OC(C)C)c(Cl)c2)n(Cc2ccc(Cl)cc2)c1=O [I-556] | 5 nM
CC(C)Oc1ccc(Nc2nc(=O)n(CC3CCOCC3)c(=O)n2Cc2ccc(Cl)cc2)cc1F [I-275] | 21 nM
Cc1ccc(Cn2c(Nc3ccc(OC(C)C)cc3)nc(=O)n(C(C)C)c2=O)cc1[N+](=O)[O-] [I-218] | 505 nM
CC(C)Oc1ccc(/N=c2\[nH]c(=O)n(C[C@H](C)C(=O)O)c(=O)n2Cc2ccc(Cl)cc2)cc1Cl [I-461] | 9 nM
Cc1ccc(Cn2c(=O)n(CC(=O)NCC(=O)O)c(=O)[nH]/c2=N\c2ccc(OC(C)C)c(F)c2)cc1 [I-416] | 35 nM
CC(C)Oc1ccc(/N=c2\[nH]c(=O)n(CCC(C)(C)C(=O)O)c(=O)n2Cc2ccc(Cl)cc2)cc1Cl [I-421] | 19 nM
COC(=O)C(C)(C)Cn1c(=O)[nH]/c(=N\c2ccc3c(ccn3C)c2)n(Cc2ccc(Cl)cc2)c1=O [I-427] | 678 nM
CC(C)Cc1ccc(Nc2nc(=O)n(CCO)c(=O)n2Cc2ccc(Cl)cc2)cc1 [I-328] | 124 nM
O=c1nc(Nc2cccc(C(F)(F)F)c2)n(Cc2ccc(Cl)cc2)c(=O)n1CCCO [I-357] | 47 nM
O=c1nc(Nc2ccc(C(F)(F)F)c(F)c2)n(Cc2ccc(Cl)cc2)c(=O)n1CCO [I-315] | 183 nM
CCOC(=O)CCCn1c(=O)[nH]/c(=N\c2ccc(OC(C)C)c(C)c2)n(Cc2ccc(Cl)cc2)c1=O [I-502] | 20 nM
CCOc1ccc(/N=c2\[nH]c(=O)n(C[C@@H](C)C(=O)OC)c(=O)n2Cc2ccc(Cl)cc2)cc1C [I-481] | 12 nM
CCn1c(=O)nc(Nc2ccc(Oc3ccccc3)cc2)n(Cc2ccc(F)cc2)c1=O [I-141] | 685 nM
COC(=O)C(C)(C)Cn1c(=O)[nH]/c(=N\c2ccc(OC(C)C)c(F)c2)n(Cc2ccc(Cl)cc2)c1=O [I-403] | 15 nM

SMILES | IC50
O=c1nc(Nc2ccc(Oc3ccccc3)cc2)n(Cc2ccc(Cl)cc2)c(=O)n1CCO [I-334] | 99 nM
CC(C)n1c(=O)nc(Nc2ccc(C#N)cc2)n(Cc2ccc(Cl)cc2)c1=O [I-372] | 964 nM
COC(=O)C(C)(C)Cn1c(=O)[nH]/c(=N\c2ccc(OC)c(C)c2)n(Cc2ccc(Cl)cc2)c1=O [I-442] | 117 nM
Cc1cc(/N=c2\[nH]c(=O)n(C[C@H](C)C(=O)O)c(=O)n2Cc2ccc(Cl)cc2)ccc1OC(C)C [I-538] | 16 nM
COC(=O)C(C)(C)Cn1c(=O)[nH]/c(=N\c2ccc(OC(C)C)c(Cl)c2)n(CC2CCCCCC2)c1=O [I-549] | 19 nM
CC(C)(Cn1c(=O)[nH]/c(=N\c2cccc(C(F)(F)F)c2)n(Cc2ccc(Cl)cc2)c1=O)C(=O)O [I-476] | 35 nM
CCOc1ccc(Nc2nc(=O)n(C[C@H](C)C(=O)OC)c(=O)n2Cc2ccc(Cl)cc2)cc1C [I-532] | 29 nM
Cc1cc2cc(/N=c3\[nH]c(=O)n(C[C@@H](C)C(=O)O)c(=O)n3Cc3ccc(Cl)cc3)ccc2o1 [I-564] | 48 nM
O=c1nc(Nc2ccc(OC(F)F)cc2)n(Cc2ccc(Cl)cc2)c(=O)n1CCCO [I-360] | 148 nM
CC(C)Oc1ccc(/N=c2\[nH]c(=O)n(Cc3cccc(C(=O)O)c3)c(=O)n2Cc2ccc(Cl)cc2)cc1F [I-451] | 16 nM
CCOC(=O)C1(Cn2c(=O)[nH]/c(=N\c3ccc(OC(C)C)c(Cl)c3)n(Cc3ccc(Cl)cc3)c2=O)CC1 [I-423] | 4 nM
COC(=O)C[C@@H](C)n1c(=O)[nH]/c(=N\c2ccc(OC(C)C)c(F)c2)n(Cc2ccc(Cl)cc2)c1=O [I-560] | 7 nM
CCOC(=O)CCCn1c(=O)[nH]/c(=N\c2ccc(OC(C)C)c(C)c2)n(Cc2ccc(C)cc2)c1=O [I-521] | 4 nM
CC(C)Oc1ccc(/N=c2\[nH]c(=O)n([C@@H](C)CC(=O)O)c(=O)n2Cc2ccc(Cl)cc2)cc1F [I-527] | 33 nM
CC(C)Oc1ccc(/N=c2\[nH]c(=O)n(CC(=O)NCCO)c(=O)n2Cc2ccc(Cl)cc2)cc1Cl [I-437] | 6 nM
COC(=O)C(C)(C)Cn1c(=O)[nH]/c(=N\c2cccc(C(F)(F)F)c2)n(Cc2ccc(Cl)cc2)c1=O [I-471] | 24 nM
Cc1ccc(Cn2c(=O)n(CC(=O)NC(C)(C)C(=O)O)c(=O)[nH]/c2=N\c2ccc(OC(C)C)c(F)c2)cc1 [I-415] | 314 nM
COC(=O)[C@@H](C)Cn1c(=O)[nH]/c(=N\c2ccc(OC(C)C)c(Cl)c2)n(Cc2ccc(Cl)cc2)c1=O [I-458] | 4 nM
CC(C)(Cn1c(=O)[nH]/c(=N\c2ccc(Cl)c(Cl)c2)n(Cc2ccc(Cl)cc2)c1=O)C(=O)O [I-477] | 56 nM
COC(=O)c1ccc(Nc2nc(=O)n(C(C)C)c(=O)n2Cc2ccc(F)cc2)cc1 [I-221] | 276 nM
CC(C)Oc1ccc(Nc2nc(=O)n(CCC(=O)O)c(=O)n2CC2CCCCC2)cc1Cl [I-382] | 96 nM
CCCSc1ccc(Nc2nc(=O)n(CCO)c(=O)n2Cc2ccc(Cl)cc2)cc1 [I-379] | 330 nM
CC(C)Oc1ccc(Nc2nc(=O)n(C(C)C)c(=O)n2Cc2ccc(F)cc2)cc1Cl [I-203] | 110 nM
CC(C)n1c(=O)nc(Nc2ccc(Oc3ccccc3)cc2)n(Cc2ccc(Cl)cn2)c1=O [I-164] | 860 nM
Cc1ccc(Cn2c(Nc3ccc(Oc4ccccc4)cc3)nc(=O)n(C(C)C)c2=O)cc1 [I-116] | 484 nM
Cc1nc2cc(/N=c3\[nH]c(=O)n(CC(C)(C)C(=O)O)c(=O)n3Cc3ccc(Cl)cc3)ccc2o1 [I-497] | 458 nM

SMILES | IC50
COc1nc(=O)n(Cc2ccc(Cl)cc2)/c(=N/c2ccc(OC(C)C)c(Cl)c2)[nH]1 [I-433] | 199 nM
Cc1ccc(Cn2c(=O)n(CCCC(=O)O)c(=O)[nH]/c2=N\c2ccc3oc(C)cc3c2)cc1 [I-520] | 80 nM
CC(C)Oc1ccc(/N=c2\[nH]c(=O)n(CCCC(=O)O)c(=O)n2Cc2ccc(Cl)cc2)cc1Cl [I-500] | 13 nM
CCOc1ccc(/N=c2\[nH]c(=O)n(CC(C)(C)C(=O)O)c(=O)n2Cc2ccc(Cl)cc2)cc1 [I-542] | 96 nM
CC(C)Oc1ccc(/N=c2\[nH]c(N3CCCC3=O)nc(=O)n2Cc2ccc(Cl)cc2)cc1Cl [II-012] | 568 nM
COc1ccc(Cn2c(=O)nc(Nc3ccc(OC(C)C)c(F)c3)n(Cc3ccc(Cl)cc3)c2=O)cc1 [I-343] | 21 nM
CC(C)Oc1ccc(/N=c2\[nH]c(=O)n(CC3(C(=O)O)CC3)c(=O)n2Cc2ccc(Cl)cc2)cc1F [I-424] | 49 nM
Cc1cc(/N=c2\[nH]c(=O)[nH]c(=O)n2Cc2ccc(Cl)cc2)ccc1OC(C)C [I-499] | 137 nM
Cc1cc2cc(/N=c3\[nH]c(=O)n(CC(C)(C)C(=O)O)c(=O)n3Cc3ccc(Cl)cc3)ccc2o1 [I-491] | 27 nM
CCOc1ccc(Nc2nc(=O)n(CCO)c(=O)n2Cc2ccc(Cl)cc2)cc1F [I-312] | 104 nM
CC(C)Oc1ccc(/N=c2\[nH]c(=O)n(C(C)C(=O)O)c(=O)n2Cc2ccc(Cl)cc2)cc1F (stereo not drawn) [I-475] | 571 nM
CCOc1ccc(/N=c2\[nH]c(=O)n(C[C@@H](C)C(=O)OC)c(=O)n2Cc2ccc(Cl)cc2)cc1 [I-480] | 12 nM
COC(=O)C(C)(C)Cn1c(=O)[nH]/c(=N\c2ccc3nc(C)oc3c2)n(Cc2ccc(Cl)cc2)c1=O [I-494] | 34 nM
CC(C)Oc1ccc(/N=c2\[nH]c(=O)n([C@H](C)CC(=O)O)c(=O)n2Cc2ccc(Cl)cc2)cc1Cl [I-561] | 8 nM
CC(C)Oc1ccc(Nc2nc(=O)n(CCO)c(=O)n2Cc2ccc(F)c(F)c2)cc1F [I-339] | 775 nM
CC(C)Oc1ccc(/N=c2\[nH]c(=O)n(CC(C)(C)C(=O)O)c(=O)n2Cc2ccc(Cl)cc2)cc1 [I-541] | 58 nM
CC(C)Oc1ccc(Nc2nc(=O)n(CCC(=O)N(C)C)c(=O)n2Cc2ccc(Cl)cc2)cc1F [I-297] | 45 nM
CC(C)Oc1ccc(/N=c2\[nH]c(=O)n(CC3(C(=O)O)CC3)c(=O)n2Cc2ccc(Cl)cc2)cc1Cl [I-425] | 16 nM
O=c1nc(Nc2ccc(OC3CCCC3)c(Cl)c2)n(Cc2ccc(Cl)cc2)c(=O)n1CCO [I-374] | 80 nM
CC(C)Oc1ccc(/N=c2\[nH]c(=O)n(CC(C)(C)C(=O)O)c(=O)n2CC2CCCCCC2)cc1Cl [I-553] | 34 nM
O=c1nc(Nc2ccc(-c3ccon3)cc2)n(Cc2ccc(Cl)cc2)c(=O)n1CCN1CCOCC1 [I-287] | 222 nM
CC(C)Oc1ccc(Nc2nc(=O)n(C(C)C)c(=O)n2Cc2ccc(F)cc2)cc1C(F)(F)F [I-204] | 558 nM
Cc1cc2cc(/N=c3\[nH]c(=O)[nH]c(=O)n3Cc3ccc(Cl)cc3)ccc2o1 [I-501] | 191 nM
Cc1ccc(Cn2c(=O)n(CCCC(=O)O)c(=O)[nH]/c2=N\c2ccc(OC(C)C)c(C)c2)cc1 [I-525] | 54 nM
CC(C)Oc1ccc(Nc2nc(=O)n(CCO)c(=O)n2Cc2ccc(Cl)cc2)cc1Cl [I-351] | 15 nM
COC(=O)C(C)(C)Cn1c(=O)[nH]/c(=N\c2cccc(OC(F)(F)F)c2)n(Cc2ccc(Cl)cc2)c1=O [I-467] | 37 nM
